Reference: article PMC9014651 (Bioorganic Chemistry, 2022)
Where a SMILES comes first, the peptide text is derived from it.

Key:
[1] = test system: M^pro; details: cited from earlier work
[2] = target: T1, SARS-CoV-2 M^pro (Severe acute respiratory syndrome coronavirus 2, UniProt P0DTD1); experiment: IC50 measurement on M^pro; assay type: biochemical
[3] = target: T1, SARS-CoV-2 M^pro; experiment: FRET percent inhibition screening of M^pro inhibitors; assay type: biochemical; details: control experiments

## O=c1c2ccccc2[se]n1-c1ccccc1 [Ebselen]
[1]
  Effect of binding on M^pro stability (thermal shift): destabilization
  Reversibility of M^pro inhibition: irreversibly inhibit

## CC(C)C[C@H](NC(=O)OCc1ccccc1)C(=O)N[C@@H](CC1CCNC1=O)C(O)S(=O)(=O)[O-].[Na+] (stereo partly shown) [GC-376]
[1]
  IC50 value range (M^pro): single-digit to sub-micromolar

## CC(C)(C)NC(=O)N[C@H](C(=O)N1C[C@H]2[C@@H]([C@H]1C(=O)NC(CC1CCC1)C(=O)C(N)=O)C2(C)C)C(C)(C)C (stereo partly shown) [boceprevir]
[1]
  IC50 value range (M^pro): single-digit to sub-micromolar

## Cc1ccccc1NC(=S)N/N=C/c1ccccc1O [2n, (E)-1-(2-hydroxybenzylidene)-4-o-tolylthiosemicarbazide]
[2]
  IC50: 20.7 µM

## CSCC[C@@H](C=O)NC(=O)[C@H](CC(C)C)NC(=O)[C@H](CC(C)C)NC(C)=O [calpain inhibitors II] (Ac-Leu-Leu-Met-aldehyde)
[1]
  IC50 value range (M^pro): single-digit to sub-micromolar

## O=C(CC(c1ccccc1)c1ccccc1)NO [N-hydroxy-3,3-diphenylpropanamide]
[3]
  Inhibitory effect on M^pro (control experiment): no inhibitory effect

## O=c1c2ccccc2sn1-c1ccccc1 [Ebsulfur]
[1]
  Reversibility of M^pro inhibition: irreversibly inhibit

## CCCC(NC(=O)C(CC(C)C)NC(=O)OCc1ccccc1)C(=O)C(=O)NCc1ccccn1 (stereo not shown) [XII]
[1]
  IC50 value range (M^pro): single-digit to sub-micromolar

## CCN(CC)C(=S)SSC(=S)N(CC)CC [disulfiram]
[1]
  Effect of binding on M^pro stability (thermal shift): destabilization
